From US5328902A, “7-(substituted)-9-[(substituted glycyl)amido]-6-demethyl-6-deoxytetracyclines” (American Cyanamid Co., priority 1992, dated 1994)
Values after ≈ are worked out from the molar mass of the structure shown. Where a name gives a salt, the structure may show the parent alone.

Assays:
Assay type in all cases: cell-based
S. aureus UBMS 90-3 = experiment: MIC, agar dilution; settings: S. aureus UBMS 90-3
E. coli UBMS 88-1 Tet B = experiment: microbe, parasite or virus in culture; settings: E. coli UBMS 88-1 Tet B; 18 hours at 35° C.
S. aureus IVES 2943 = experiment: MIC, agar dilution; settings: S. aureus IVES 2943
[1] = tested on: E. coli UBMS 89-2 Tet sens.; experiment: MIC, agar dilution; settings: E. coli UBMS 89-2 Tet sens.
[2] = tested on: Ps. acruginosa ATCC 27853; experiment: MIC, agar dilution; settings: Ps. acruginosa ATCC 27853
E. coli ATCC 25922 = experiment: MIC, agar dilution; settings: E. coli ATCC 25922
[3] = tested on: E. coli MC 4100 Tet sens.; experiment: MIC, agar dilution
S. aureus IVES 1 983 = experiment: MIC, agar dilution; settings: S. aureus IVES 1 983
E. coli #311 (MP) = experiment: MIC, agar dilution; settings: E. coli #311 (MP)
[4] = tested on: S. aureus UBMS 90-1 Tet M; experiment: microbe, parasite or virus in culture; settings: S. aureus UBMS 90-1 Tet M
S. aureus UBMS 88-4 = experiment: MIC, agar dilution; settings: S. aureus UBMS 88-4
Enterococcus 12201 = experiment: MIC, agar dilution; settings: Enterococcus 12201
[5] = tested on: S. aureus UBMS 88-7 Tet K; experiment: microbe, parasite or virus in culture; settings: S. aureus UBMS 88-7 Tet K
S. aureus NEMC 8769 = experiment: MIC, agar dilution; settings: S. aureus NEMC 8769
[6] = tested on: S. aureus UBMS 90-2 Tet M; experiment: microbe, parasite or virus in culture; settings: S. aureus UBMS 90-2 Tet M
S. aureus ATCC 29213 = experiment: MIC, agar dilution; settings: S. aureus ATCC 29213
S. mariescens FPOR 8733 = experiment: MIC, agar dilution
[7] = tested on: S. hemolyticus AVHAH 88-3; experiment: MIC, agar dilution; settings: S. hemolyticus AVHAH 88-3
E. coli UBMS 90-5 = experiment: MIC, agar dilution
E. faecalis ATCC 29212 = experiment: MIC, agar dilution; settings: E. faecalis ATCC 29212
E. coli UBMS 89-1 Tet M = experiment: microbe, parasite or virus in culture; settings: E. coli UBMS 89-1 Tet M
E. coli J2175 = experiment: MIC, agar dilution; settings: E. coli J2175
[8] = tested on: S. aureus UBMS 88-5 Tet M; experiment: microbe, parasite or virus in culture; settings: S. aureus UBMS 88-5 Tet M
S. aureus ROSE (MP) = experiment: MIC, agar dilution; settings: S. aureus ROSE (MP)
E. coli UBMS 90-4 Tet M = experiment: microbe, parasite or virus in culture; settings: E. coli UBMS 90-4 Tet M
E. coli BAJ9003 IMP MUT = experiment: microbe, parasite or virus in culture; settings: E. coli BAJ9003 IMP MUT
S. aureus SMITH (MP) = experiment: MIC, agar dilution; settings: S. aureus SMITH (MP)
E. coli J3272 Tet D = experiment: microbe, parasite or virus in culture; settings: E. coli J3272 Tet D
E. coli PRP1 Tet A = experiment: microbe, parasite or virus in culture; settings: E. coli PRP1 Tet A
E. coli J3272 Tet C = experiment: microbe, parasite or virus in culture; settings: E. coli J3272 Tet C

Molecule	MIC (S. aureus UBMS 90-3)	MIC (E. coli UBMS 88-1 Tet B)	MIC (S. aureus IVES 2943)	MIC [1]	MIC [2]	MIC (E. coli ATCC 25922)	MIC [3]	MIC (S. aureus IVES 1 983)	MIC (E. coli #311 (MP))	MIC [4]	MIC (S. aureus UBMS 88-4)	MIC (Enterococcus 12201)	MIC [5]	MIC (S. aureus NEMC 8769)	MIC [6]	MIC (S. aureus ATCC 29213)	MIC (S. mariescens FPOR 8733)	MIC [7]	MIC (E. coli UBMS 89-1 Tet M)	MIC [8]	further results
CN(C)c1cc(NC(=O)CNCC(F)(F)F)c(O)c2c1CC1CC3C(N(C)C)C(O)=C(C(N)=O)C(=O)C3(O)C(O)=C1C2=O (stereo not drawn) [S, [4S-(4alpha,12aalpha)]-4,7-Bis(dimethylamino)-1,4,4a,5,5a,6,11,12a-octahydro-3,10, 12,12a-tetrahydroxy-1,11-dioxo-9-[[[2,2,2-trifluoroethyl)amino]acetyl]amino-2-naphthacenecarboxamide]	4 µg/mL (≈ 6.54 µM)	32 µg/mL (≈ 52.3 µM)	> 32 µg/mL	> 32 µg/mL	> 32 µg/mL	> 32 µg/mL	16 µg/mL (≈ 26.2 µM)	> 32 µg/mL	> 32 µg/mL	16 µg/mL (≈ 26.2 µM)	4 µg/mL (≈ 6.54 µM)	4 µg/mL (≈ 6.54 µM)	32 µg/mL (≈ 52.3 µM)	4 µg/mL (≈ 6.54 µM)	4 µg/mL (≈ 6.54 µM)	4 µg/mL (≈ 6.54 µM)	> 32 µg/mL	16 µg/mL (≈ 26.2 µM)	32 µg/mL (≈ 52.3 µM)	8 µg/mL (≈ 13.1 µM)	MIC (E. coli UBMS 90-5): > 32 µg/mL; MIC (E. faecalis ATCC 29212): 2 µg/mL (≈ 3.27 µM); MIC (E. coli J2175): > 32 µg/mL
[4S-(4alpha,12aalpha)]-4,7-Bis(dimethylamino)-1,4,4a,5,5a,6,11,12a-octahydro-3,10, 12,12a-tetrahydroxy-1,11-dioxo-9-[[(undecylamino)acetyl]amino]-2-naphthacenecarboxamide dihydrochloride	0.5 µg/mL	32 µg/mL	–	–	> 32 µg/mL	–	2 µg/mL	–	8 µg/mL	16 µg/mL	0.5 µg/mL	4 µg/mL	2 µg/mL	0.5 µg/mL	4 µg/mL	1 µg/mL	> 32 µg/mL	–	16 µg/mL	16 µg/mL	MIC (S. aureus ROSE (MP)): 16 µg/mL; MIC (E. coli UBMS 90-4 Tet M): 32 µg/mL; MIC (E. coli BAJ9003 IMP MUT): 1 µg/mL; MIC (S. aureus SMITH (MP)): 0.5 µg/mL; MIC (E. coli J3272 Tet D): 32 µg/mL; MIC (E. coli PRP1 Tet A): 32 µg/mL; MIC (E. faecalis ATCC 29212): 2 µg/mL
[4S-(4alpha,12aalpha)]-4,7-bis(dimethylamino)-1,4,4a,5,5a,6,11,12a-octahydro-3,10, 12,12a-tetrahydroxy-1,11-dioxo-9-[[[(2pyridinylmethyl)amino]acetyl]amino-2-naphthacenecarboxamide dihydrochloride	4 µg/mL	16 µg/mL	> 32 µg/mL	16 µg/mL	> 32 µg/mL	8 µg/mL	2 µg/mL	> 32 µg/mL	8 µg/mL	8 µg/mL	8 µg/mL	4 µg/mL	32 µg/mL	8 µg/mL	8 µg/mL	8 µg/mL	> 32 µg/mL	16 µg/mL	8 µg/mL	8 µg/mL	MIC (E. coli UBMS 90-4 Tet M): 8 µg/mL; MIC (E. coli BAJ9003 IMP MUT): 1 µg/mL; MIC (S. aureus SMITH (MP)): 4 µg/mL; MIC (E. coli J3272 Tet D): 8 µg/mL; MIC (E. coli J3272 Tet C): 16 µg/mL; MIC (E. coli UBMS 90-5): 16 µg/mL; MIC (E. coli PRP1 Tet A): 32 µg/mL; MIC (E. faecalis ATCC 29212): 2 µg/mL; MIC (E. coli J2175): 16 µg/mL
CCCCCCCNCC(=O)Nc1cc(N(C)C)c2c(c1O)C(=O)C1=C(O)[C@]3(O)C(=O)C(C(N)=O)=C(O)[C@@H](N(C)C)C3CC1C2 (stereo partly drawn) [J, [4S-(4alpha,12aalpha)]-4,7-Bis(dimethylamino)-9-[[(heptylamino)acetyl]amino]-l,4,4a,5,5a,6,11,12a-octahydro-3,10,12,12a-tetrahydroxy-1,11-dioxo-2-naphthacenecarboxamide dihydrochloride]	–	2 µg/mL	0.5 µg/mL	2 µg/mL	> 32 µg/mL	2 µg/mL	1 µg/mL	1 µg/mL	2 µg/mL	1 µg/mL	0.5 µg/mL	0.5 µg/mL	1 µg/mL	no	0.5 µg/mL	0.5 µg/mL	16 µg/mL	2 µg/mL	0.5 µg/mL	0.5 µg/mL	MIC (S. aureus ROSE (MP)): 2 µg/mL; MIC (E. coli UBMS 90-4 Tet M): 2 µg/mL; MIC (E. coli BAJ9003 IMP MUT): 0.25 µg/mL; MIC (E. coli J3272 Tet D): 2 µg/mL; MIC (E. coli J3272 Tet C): 2 µg/mL; MIC (E. coli UBMS 90-5): 2 µg/mL; MIC (E. coli PRP1 Tet A): 2 µg/mL; MIC (E. coli J2175): 2 µg/mL
